Measurements taken from paper PMC5218480 (PLoS ONE, 2017).

Test system: MV-4-11 cells
Test: Gene expression microarray analysis (Affymetrix PrimeView) and GSEA
Assay type: cell-based, human
Set-up: RFU PODN (11730768_x_at) / Fold change /veh PODN (11730768_x_at) / RFU LINC00158 (11744669_a_at) / Fold change /veh LINC00158 (11744669_a_at) / RFU DUSP10 (11751237_a_at) / Fold change /veh DUSP10 (11751237_a_at) / RFU ID3 (11757404_x_at) / Fold change /veh ID3 (11757404_x_at) / RFU PLEKHG5 (11737974_s_at) / Fold change /veh PLEKHG5 (11737974_s_at) / RFU LRRC4B (11730491_at) / Fold change /veh LRRC4B (11730491_at) / RFU GIMAP4 (11747438_a_at) / Fold change /veh GIMAP4 (11747438_a_at) / RFU KRT8 (11758183_x_at) / Fold change /veh KRT8 (11758183_x_at) / RFU CNN1 (11734310_a_at) / Fold change /veh CNN1 (11734310_a_at) / RFU VPS37D (11726825_at) / Fold change /veh VPS37D (11726825_at) / RFU C10orf10 (11716522_x_at) / Fold change /veh C10orf10 (11716522_x_at) / RFU KIR2DL2 /// KIR2DL4 /// KIR2DL5A /// KIR2DL5B /// KIR2DS1 /// KIR2DS2 /// KIR2DS3 /// KIR2DS4 /// KIR3DL3 /// KIR3DL3 /// KIR3DS1 (11738374_at) / Fold change /veh KIR2DL2 /// KIR2DL4 /// KIR2DL5A /// KIR2DL5B /// KIR2DS1 /// KIR2DS2 /// KIR2DS3 /// KIR2DS4 /// KIR3DL3 /// KIR3DL3 /// KIR3DS1 (11738374_at) / RFU C1QL1 (11718748_at) / Fold change /veh C1QL1 (11718748_at) / RFU TMPRSS4 (11747572_a_at) / Fold change /veh TMPRSS4 (11747572_a_at) / RFU HAMP (11756126_x_at) / Fold change /veh HAMP (11756126_x_at) / RFU RNFT2 (11725882_a_at) / Fold change /veh RNFT2 (11725882_a_at) / RFU NR4A2 (11747474_a_at) / Fold change /veh NR4A2 (11747474_a_at) / RFU ABCC12 (11746883_a_at) / Fold change /veh ABCC12 (11746883_a_at) / RFU TMEM136 (11760407_x_at) / Fold change /veh TMEM136 (11760407_x_at) / RFU CLDN22 /// WWC2 (11732394_at) / Fold change /veh CLDN22 /// WWC2 (11732394_at) / RFU HLA-DPB1 (11760878_x_at) / Fold change /veh HLA-DPB1 (11760878_x_at) / RFU SPINT1 (11716480_a_at) / Fold change /veh SPINT1 (11716480_a_at) / RFU GAP43 (11754022_s_at) / Fold change /veh GAP43 (11754022_s_at) / RFU A4GNT (11735810_at) / Fold change /veh A4GNT (11735810_at) / RFU PRB3 (11715151_x_at) / Fold change /veh PRB3 (11715151_x_at) / RFU TUBB4B (11761932_at) / Fold change /veh TUBB4B (11761932_at) / RFU CAPN14 (11732068_a_at) / Fold change /veh CAPN14 (11732068_a_at) / RFU TMCC2 (11721928_a_at) / Fold change /veh TMCC2 (11721928_a_at) / RFU IRGQ (11745062_a_at) / Fold change /veh IRGQ (11745062_a_at) / RFU FAM174B (11720279_a_at) / Fold change /veh FAM174B (11720279_a_at) / RFU TMPRSS4 (11748680_a_at) / Fold change /veh TMPRSS4 (11748680_a_at) / RFU FAM212B (11763350_a_at) / Fold change /veh FAM212B (11763350_a_at) / RFU PLEKHG5 (11743358_a_at) / Fold change /veh PLEKHG5 (11743358_a_at) / RFU ZSCAN30 (11745921_a_at) / Fold change /veh ZSCAN30 (11745921_a_at) / RFU CMKLR1 (11741424_a_at) / Fold change /veh CMKLR1 (11741424_a_at) / RFU LOC101060620 /// MAPK8IP1 (11723275_at) / Fold change /veh LOC101060620 /// MAPK8IP1 (11723275_at) / RFU SPTSSB (11747773_x_at) / Fold change /veh SPTSSB (11747773_x_at) / RFU PRSS12 (11739890_at) / Fold change /veh PRSS12 (11739890_at) / RFU BIN1 (11741810_x_at) / Fold change /veh BIN1 (11741810_x_at) / RFU WNT11 (11732464_a_at) / Fold change /veh WNT11 (11732464_a_at) / RFU C10orf10 (11716521_a_at) / Fold change /veh C10orf10 (11716521_a_at) / RFU C5orf56 (11738089_at) / Fold change /veh C5orf56 (11738089_at) / RFU CYB561 (11721691_x_at) / Fold change /veh CYB561 (11721691_x_at) / RFU ANKRD19P (11752326_a_at) / Fold change /veh ANKRD19P (11752326_a_at) / RFU OR2T12 /// OR2T33 /// OR2T8 (11738714_s_at) / Fold change /veh OR2T12 /// OR2T33 /// OR2T8 (11738714_s_at) / RFU VCAN (11748164_a_at) / Fold change /veh VCAN (11748164_a_at) / RFU JSRP1 (11732532_at) / Fold change /veh JSRP1 (11732532_at) / RFU KRTAP10-11 (11738290_x_at) / Fold change /veh KRTAP10-11 (11738290_x_at) / RFU MYO3A (11730013_a_at) / Fold change /veh MYO3A (11730013_a_at) / RFU EBF3 (11725865_a_at) / Fold change /veh EBF3 (11725865_a_at) / RFU CAMK2N1 (11719241_x_at) / Fold change /veh CAMK2N1 (11719241_x_at) / RFU C5orf56 (11738088_a_at) / Fold change /veh C5orf56 (11738088_a_at) / RFU OLFML3 (11715873_a_at) / Fold change /veh OLFML3 (11715873_a_at) / RFU LOC100653217 /// NTM (11731650_a_at) / Fold change /veh LOC100653217 /// NTM (11731650_a_at) / RFU MAPK11 (11762145_a_at) / Fold change /veh MAPK11 (11762145_a_at) / RFU FIZ1 (11724087_x_at) / Fold change /veh FIZ1 (11724087_x_at) / RFU OASL (11726364_x_at) / Fold change /veh OASL (11726364_x_at) / RFU SOX15 (11748057_x_at) / Fold change /veh SOX15 (11748057_x_at) / RFU CD79A (11719716_a_at) / Fold change /veh CD79A (11719716_a_at) / RFU HIST1H1D (11736915_at) / Fold change /veh HIST1H1D (11736915_at) / RFU CASKIN2 (11723855_a_at) / Fold change /veh CASKIN2 (11723855_a_at) / RFU LOC730098 (11760151_x_at) / Fold change /veh LOC730098 (11760151_x_at) / RFU OR4N2 (11742367_at) / Fold change /veh OR4N2 (11742367_at) / RFU PRRT2 (11749266_a_at) / Fold change /veh PRRT2 (11749266_a_at) / RFU SNX32 (11753110_a_at) / Fold change /veh SNX32 (11753110_a_at) / RFU CDHR5 (11726645_a_at) / Fold change /veh CDHR5 (11726645_a_at) / RFU RCAN1 (11760418_a_at) / Fold change /veh RCAN1 (11760418_a_at) / RFU FAM167A (11723789_a_at) / Fold change /veh FAM167A (11723789_a_at) / RFU FAM26E (11764081_at) / Fold change /veh FAM26E (11764081_at) / RFU ISYNA1 (11749810_s_at) / Fold change /veh ISYNA1 (11749810_s_at) / RFU ACY1 (11761880_at) / Fold change /veh ACY1 (11761880_at) / RFU 11764098_at / Fold change /veh 11764098_at / RFU SAMD14 (11745864_x_at) / Fold change /veh SAMD14 (11745864_x_at) / RFU NPB (11741838_a_at) / Fold change /veh NPB (11741838_a_at) / RFU TMPRSS6 (11731388_a_at) / Fold change /veh TMPRSS6 (11731388_a_at) / RFU KRTAP10-2 (11738614_at) / Fold change /veh KRTAP10-2 (11738614_at) / RFU ARHGAP8 /// PRR5-ARHGAP8 (11727945_x_at) / Fold change /veh ARHGAP8 /// PRR5-ARHGAP8 (11727945_x_at) / RFU KRTAP5-7 /// NADSYN1 (11734609_at) / Fold change /veh KRTAP5-7 /// NADSYN1 (11734609_at) / RFU RASL12 (11751679_a_at) / Fold change /veh RASL12 (11751679_a_at) / RFU CDKN2B (11736163_a_at) / Fold change /veh CDKN2B (11736163_a_at) / RFU PRF1 (11729649_at) / Fold change /veh PRF1 (11729649_at) / RFU, ZNF638 /// ZNF638-IT1 / Fold change vs veh, ZNF638 /// ZNF638-IT1 / RFU, PANK3 / Fold change vs veh, PANK3 / RFU, SH3YL1 / Fold change vs veh, SH3YL1 / RFU, ZEB2 / Fold change vs veh, ZEB2 / RFU, NRIP1 / Fold change vs veh, NRIP1 / RFU, PTTG1IP / Fold change vs veh, PTTG1IP / RFU, CAPN2 / Fold change vs veh, CAPN2 / RFU, MED14 / Fold change vs veh, MED14 / RFU, SNORA58 / Fold change vs veh, SNORA58 / RFU, C1orf63 / Fold change vs veh, C1orf63 / RFU, LRRFIP1 / Fold change vs veh, LRRFIP1 / RFU, NDUFAF7 / Fold change vs veh, NDUFAF7 / RFU, SLC12A2 / Fold change vs veh, SLC12A2 / RFU, IBTK / Fold change vs veh, IBTK / RFU, ESF1 / Fold change vs veh, ESF1 / Fold change vs veh, TMEM50B / RFU, TAOK1 / Fold change vs veh, TAOK1 / RFU, ACBD3 / Fold change vs veh, ACBD3 / RFU, TMA16 / Fold change vs veh, TMA16 / RFU, RWDD3 / Fold change vs veh, RWDD3 / RFU, BCAT1 / Fold change vs veh, BCAT1 / RFU, EDEM3 / Fold change vs veh, EDEM3 / RFU, TMEM33 / Fold change vs veh, TMEM33 / RFU, WDR75 / Fold change vs veh, WDR75 / RFU, AHCTF1 / Fold change vs veh, AHCTF1 / RFU, TFRC / Fold change vs veh, TFRC / RFU, ZDHHC17 / Fold change vs veh, ZDHHC17 / RFU, NOM1 / Fold change vs veh, NOM1 / RFU, ARL8B / Fold change vs veh, ARL8B / RFU, ZBTB11 / Fold change vs veh, ZBTB11 / RFU, TAMM41 / Fold change vs veh, TAMM41 / RFU, KIAA1704 /// LOC100996395 / Fold change vs veh, KIAA1704 /// LOC100996395 / RFU, ING1 / Fold change vs veh, ING1 / RFU, TRMT61B / Fold change vs veh, TRMT61B / RFU, FUBP3 / Fold change vs veh, FUBP3 / RFU, TP53 / Fold change vs veh, TP53 / RFU, TNKS2 / Fold change vs veh, TNKS2 / RFU, ZFP14 / Fold change vs veh, ZFP14 / RFU, ACTR2 / Fold change vs veh, ACTR2 / RFU, PPP3R1 / Fold change vs veh, PPP3R1 / RFU, PIK3R1 / Fold change vs veh, PIK3R1 / RFU, HNRNPA1 / Fold change vs veh, HNRNPA1 / RFU, RNF170 / Fold change vs veh, RNF170 / RFU, ZNF28 / Fold change vs veh, ZNF28 / RFU, RNGTT / Fold change vs veh, RNGTT / RFU, OGT / Fold change vs veh, OGT / RFU, BRD1 / Fold change vs veh, BRD1 / RFU, MARS / Fold change vs veh, MARS / RFU, ZNF655 / Fold change vs veh, ZNF655 / RFU, FAHD1 / Fold change vs veh, FAHD1 / RFU, BDP1 / Fold change vs veh, BDP1 / RFU, LRRCC1 / Fold change vs veh, LRRCC1 / RFU, ARID1A / Fold change vs veh, ARID1A / RFU, ZNF146 / Fold change vs veh, ZNF146 / RFU, ZNF330 / Fold change vs veh, ZNF330 / RFU, GPN3 / Fold change vs veh, GPN3 / RFU, C9orf123 / Fold change vs veh, C9orf123 / RFU, N4BP2L2 / Fold change vs veh, N4BP2L2 / RFU, ARFIP1 / Fold change vs veh, ARFIP1 / RFU, FAM179B / Fold change vs veh, FAM179B / RFU, BCL10 / Fold change vs veh, BCL10 / RFU, UHRF1BP1L / Fold change vs veh, UHRF1BP1L / RFU, BET1 / Fold change vs veh, BET1 / RFU, CNOT2 / Fold change vs veh, CNOT2 / RFU, ZNF268 / Fold change vs veh, ZNF268 / Fold change vs veh, ZNF507 / RFU, DGCR2 / Fold change vs veh, DGCR2 / RFU, WDSUB1 / Fold change vs veh, WDSUB1 / Fold change vs veh, HSP90B1 /// MIR3652 / RFU, ADSS / Fold change vs veh, ADSS / RFU, GK / Fold change vs veh, GK / RFU, ZNF148 / Fold change vs veh, ZNF148 / RFU, TAF9 / Fold change vs veh, TAF9 / RFU, SLC1A5 / Fold change vs veh, SLC1A5 / RFU, SLMO2 / Fold change vs veh, SLMO2 / RFU, ABCC4 / Fold change vs veh, ABCC4 / RFU, LOC101060439 /// RAP1B / Fold change vs veh, LOC101060439 /// RAP1B / RFU, RFX7 / Fold change vs veh, RFX7 / RFU, GTPBP10 / Fold change vs veh, GTPBP10 / RFU, CNEP1R1 / Fold change vs veh, CNEP1R1 / RFU, BIVM-ERCC5 /// ERCC5 / Fold change vs veh, BIVM-ERCC5 /// ERCC5 / RFU, ILF3 / Fold change vs veh, ILF3 / RFU 11762660_at / Fold change /veh 11762660_at / RFU VCAN (11757783_s_at) / Fold change /veh VCAN (11757783_s_at) / RFU DDX43 (11728927_at) / Fold change /veh DDX43 (11728927_at) / RFU KRT8 (11758188_x_at) / Fold change /veh KRT8 (11758188_x_at) / RFU NKD1 (11759106_at) / Fold change /veh NKD1 (11759106_at) / RFU SRD5A1 (11742802_a_at) / Fold change /veh SRD5A1 (11742802_a_at) / RFU TPSAB1 /// TPSB2 (11721975_s_at) / Fold change /veh TPSAB1 /// TPSB2 (11721975_s_at) / RFU GSTM3 (11746129_a_at) / Fold change /veh GSTM3 (11746129_a_at) / RFU IL23R (11737362_x_at) / Fold change /veh IL23R (11737362_x_at) / RFU TMEM51 (11727254_a_at) / Fold change /veh TMEM51 (11727254_a_at) / RFU PIWIL2 (11732686_x_at) / Fold change /veh PIWIL2 (11732686_x_at) / RFU ORM1 (11744905_x_at) / Fold change /veh ORM1 (11744905_x_at) / RFU CCDC152 (11743942_at) / Fold change /veh CCDC152 (11743942_at) / RFU ECM1 (11717891_a_at) / Fold change /veh ECM1 (11717891_a_at) / RFU IL23R (11748794_a_at) / Fold change /veh IL23R (11748794_a_at) / RFU TNFAIP8L3 (11732012_x_at) / Fold change /veh TNFAIP8L3 (11732012_x_at) / RFU MBOAT4 (11741988_at) / Fold change /veh MBOAT4 (11741988_at) / RFU 11764193_at / Fold change /veh 11764193_at / RFU TMEM53 (11763286_at) / Fold change /veh TMEM53 (11763286_at) / RFU MAGEB2 (11727129_at) / Fold change /veh MAGEB2 (11727129_at) / RFU TMEM200A (11744735_a_at) / Fold change /veh TMEM200A (11744735_a_at) / RFU CCDC152 (11751479_a_at) / Fold change /veh CCDC152 (11751479_a_at) / RFU FAM211A (11726209_a_at) / Fold change /veh FAM211A (11726209_a_at) / RFU RGS16 (11746705_a_at) / Fold change /veh RGS16 (11746705_a_at) / RFU VCAN (11755009_s_at) / Fold change /veh VCAN (11755009_s_at) / RFU RHOB (11743442_s_at) / Fold change /veh RHOB (11743442_s_at) / RFU RGS16 (11720943_a_at) / Fold change /veh RGS16 (11720943_a_at) / RFU RGS16 (11720944_at) / Fold change /veh RGS16 (11720944_at) / RFU, VPS4B / Fold change vs veh, VPS4B / RFU, CREB1 / Fold change vs veh, CREB1 / RFU, DNAJC13 / Fold change vs veh, DNAJC13 / RFU, GNAQ / Fold change vs veh, GNAQ / RFU, CDK5R1 / Fold change vs veh, CDK5R1 / RFU, ZRANB3 / Fold change vs veh, ZRANB3 / RFU, CUL4A / Fold change vs veh, CUL4A / RFU, CCNY / Fold change vs veh, CCNY / RFU, UFL1 / Fold change vs veh, UFL1 / RFU, COG3 / Fold change vs veh, COG3 / RFU, DIAPH2 / Fold change vs veh, DIAPH2 / RFU, SKA2 / Fold change vs veh, SKA2 / RFU, AFF3 / Fold change vs veh, AFF3 / RFU, LMF1 / Fold change vs veh, LMF1 / RFU, IPO11 / Fold change vs veh, IPO11 / RFU, DFFB / Fold change vs veh, DFFB / RFU, FOXP1 / Fold change vs veh, FOXP1 / RFU, CARD8 / Fold change vs veh, CARD8 / RFU, STRN3 / Fold change vs veh, STRN3 / RFU, ADK / Fold change vs veh, ADK / RFU, RASSF2 / Fold change vs veh, RASSF2 / RFU, WIPF1 / Fold change vs veh, WIPF1 / RFU, LARP1B / Fold change vs veh, LARP1B / RFU, RASA1 / Fold change vs veh, RASA1 / RFU, RB1 / Fold change vs veh, RB1 / RFU, PPFIA1 / Fold change vs veh, PPFIA1 / RFU, MAT2A / Fold change vs veh, MAT2A / RFU, CCT5 / Fold change vs veh, CCT5 / RFU, WDR92 / Fold change vs veh, WDR92 / RFU, CUX1 / Fold change vs veh, CUX1 / RFU, TTC7A / Fold change vs veh, TTC7A / RFU, TMEM135 / Fold change vs veh, TMEM135 / RFU, DEPTOR / Fold change vs veh, DEPTOR / RFU, CPM / Fold change vs veh, CPM / RFU, DNAJB6 / Fold change vs veh, DNAJB6 / RFU, CACNA2D3 / Fold change vs veh, CACNA2D3 / RFU, DTX4 / Fold change vs veh, DTX4 / RFU, TFCP2 / Fold change vs veh, TFCP2 / RFU, GMCL1 /// GMCL1P1 / Fold change vs veh, GMCL1 /// GMCL1P1 / RFU, AEBP2 / Fold change vs veh, AEBP2 / RFU, SNHG1 /// SNORD22 /// SNORD25 /// SNORD26 /// SNORD27 /// SNORD28 /// SNORD29 /// SNORD31 / Fold change vs veh, SNHG1 /// SNORD22 /// SNORD25 /// SNORD26 /// SNORD27 /// SNORD28 /// SNORD29 /// SNORD31 / Fold change (Aza/veh), C12orf56 (ProbeSet 11735607_a_at) / Fold change (ACY-1035/veh), C12orf56 (ProbeSet 11735607_a_at) / Fold change (Aza/veh), FGFR1OP (ProbeSet 11751329_s_at) / Fold change (ACY-1035/veh), FGFR1OP (ProbeSet 11751329_s_at) / Fold change (Aza/veh), VPS36 (ProbeSet 11739960_a_at) / Fold change (ACY-1035/veh), VPS36 (ProbeSet 11739960_a_at) / RFU SYPL1 (11715823_x_at) / Fold change /veh SYPL1 (11715823_x_at) / RFU IGFBP7 (11715501_s_at) / Fold change /veh IGFBP7 (11715501_s_at) / RFU REEP3 (11722064_at) / Fold change /veh REEP3 (11722064_at) / RFU IGLL1 (11728026_x_at) / Fold change /veh IGLL1 (11728026_x_at): dose or concentration left out as unconfirmed
Conditions: MV-4-11 cells, 48 hours

Nc1ncn([C@@H]2O[C@H](CO)[C@@H](O)[C@H]2O)c(=O)n1 [azacitidine]
RFU HLA-DPB1 (11760878_x_at): 15.97 RFU
